What is called pEC50 is −log10 of the EC50, conventionally taken in molar units. The term pIC50 denotes −log10 of the IC50, conventionally taken in molar units. Low readings indicate a high IC50, high ones a low IC50.

For the test, the system named is CEM cells HIV-1 protection, formazan growth assay. Description: NCI AIDS Antiviral Assay. The following applies: for pIC50: measured here: growth of uninfected CEM cells. The method, boiled down:
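Protection of CEM cells against HIV-1 was scored from cell growth (soluble formazan) across five concentrations, with parallel uninfected cells. Lack of protection may reflect toxicity.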

pEC50, pIC50: −log10 of the molar value. “And” between values parts separate entries of the source, which are not always exact repeats. Equal entries are not always repeated. The source made the active and inactive calls.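 How the source made its calls: active means compounds giving half or more protection of infected cells from virus-caused growth loss, again on retest; inactive means the rest.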 Where a SMILES comes first, the peptide text is derived from it. Bridges are numbered along the chain shown (N, C = ends). Roman numbers before positions name the chains, in order. The star is where a group is joined. Boc = CC(C)(C)OC(=O)* Some results are limits rather than exact numbers.

In the case of `CC(NNC(=O)CC(=O)N(C(=O)c1ccccc1)c1ccc(Cl)cc1)c1cc2ccccc2oc1=O` (stereo not given), the pEC50 is under 3.70 and the pIC50 was under 3.70.

As to `COc1c(O)c2c(=O)cc3c4c5c(cc(=O)c6c(O)c(OC)c(CC(C)O)c(c(c1CC(C)O)c24)c65)OCO3` (stereo not given), the pEC50 is under 4.62 and the pIC50 is 6.08. In the same order, the values of `CC(=O)Nc1ccc(/C=C/C(=O)c2sc(-n3nc(-c4ccccc4)cc3-c3ccccc3)nc2C)cc1` are under 4.70 and 4.77.

As for `CC(C)=CCC1(O)C(=O)c2ccccc2C1(O)C(=O)O` (stereo not given), the pEC50 is under 3.70 and the pIC50 is under 3.70. As to `CCOC(=O)[C@@]1(C)CC(O)C(=O)N1C` (stereo not given in full), the outcome was inactive.

With `O=C1c2cccc3cccc(c23)C(=O)N1CCCCCCCCN1C(=O)c2cccc3cccc(c23)C1=O`, the pEC50 was under 3.70 and the pIC50 was 4.83. The like results for `CC(C)C(=O)Nc1nc2nc[nH]c2c(=O)[nH]1` were, in that order, under 4.07 and under 4.07. The like results for `CC1C(=O)C(C)C(c2ccco2)N(N=O)C1c1ccco1` (stereo not given) were, in that order, under 3.63 and 3.88. The like results for `COc1cc(C(C)O)c[n+](Cc2ccccc2)c1` (stereo not given) were, in that order, under 3.52 and under 3.52. `COc1cc2c(cc1O)C1C(O2)c2ccc(OCc3ccccc3)cc2OC1(C)C` (stereo not given): the pEC50 is under 3.70 and the pIC50 was 4.82. The like results for `Oc1cc(O)cc(-c2c(O)cc(O)cc2O)c1` were, in that order, under 3.70 and 3.84. In the case of `COc1ccc(CNc2cnc3ccc(N)cc3n2)cc1`, the pEC50 is under 3.89 and the pIC50 was 4.11.

With `O=C(NC(=Nc1ccccc1)SCCSC(=Nc1ccccc1)NC(=O)c1cccs1)c1cccs1`, the pEC50 was under 5.44 and the pIC50 was under 5.44. Consider `CCOC(=O)C1(N)CC1`, for which the pEC50 is under 3.70 and the pIC50 was under 3.70. Take `CCOC(=O)c1nn2c(nc1=O)sc1ccc3ccccc3c12`: the pEC50 is under 4.16 and the pIC50 is under 4.16.

With `O=c1oc2ccccc2cc1F`, the pEC50 is under 3.52 and the pIC50 is under 3.52.

In the case of `CCOP(=O)(OCC)C(=O)C1CC1`, the pEC50 was under 2.92 and the pIC50 is 3.08. In the case of `COc1ccc2c(CCNS(=O)(=O)c3ccccc3)c(C(C)=O)[nH]c2c1[N+](=O)[O-]`, the result was inactive.

On to `Nc1ccc(C(=O)NN2C(=O)C(Cl)C2c2cccc([N+](=O)[O-])c2)cc1` (stereo not given), for which the pEC50 is under 3.70 and the pIC50 was 4.99. In the same order, the values of `CC(C)(S)C(N)C(=O)O` (stereo not given) are under 2.78 and under 2.78. The like results for `CCOC(=O)C(C[Si](C)(C)C)P(=O)(OCC)OCC` (stereo not given) were, in that order, under 3.24 and 3.27. With `Cc1ccc(NC(=O)C(=O)C2C(=O)N(c3ccccc3)N=C2N)cc1C` (stereo not given), the result was inactive.

Regarding `Cn1nc2ccc([N+](=O)[O-])cc2[n+]1[O-]`, the pEC50 was under 3.70 and the pIC50 was 3.81. Turning to `CCCCCCOCC(=O)O`, the pEC50 was under 3.70 and the pIC50 is under 3.70. On to `C1=C\SS/C=C\SS/C=C\SS/C=C\SS/1`, for which the pEC50 is 4.89 and the pIC50 was 4.82.

As to `CCC[CH2][Sn]([CH2]CCC)([S]c1cccc2cccnc12)[S]c1cccc2cccnc12`, the outcome was inactive. Take `CC1=C(c2ccccc2)NC(=S)C(C)C(c2ccccc2)=N1` (stereo not given): the pEC50 was under 3.70 and the negative logarithm of the IC50 (pIC50) was 4.55. The like results for `c1ccc(-c2nc(-c3ccccc3)n3c(-c4ccccc4)nnc3n2)cc1` were, in that order, under 4.83 and under 4.83.

`O=C(O)CC(Cc1ccc2c(c1)OCO2)C(=O)O` (stereo not given): the pEC50 was under 3.70 and the pIC50 is under 3.70. `CCOC(=O)C(C)(C)/C=C\C(Cl)=C(Cl)Cl`: the pEC50 is under 3.70 and the pIC50 was 3.93. In the same order, the values of `CSC1C=C(C(C)C)CCC1(C)SC` (stereo not given) are under 3.70 and 4.40. Consider `CCOC(=O)C(Cc1ccc(O)cc1)NC(=O)C(N)CSSCC(N)C(=O)NC(Cc1ccc(O)cc1)C(=O)OCC` (stereo not drawn) (I: H-Cys-Tyr-OEt / II: H-Cys-Tyr-OEt; disulfide I:1-II:1; configuration not given here), for which the pEC50 was under 3.70 and the pIC50 is under 3.70. With `Cc1cc(N(CCC#N)CCC#N)ccc1N=Nc1ccccc1[N+](=O)[O-]`, the pEC50 is under 4.84 and the pIC50 is under 4.84. Turning to `Cc1ccc(C2=C(c3ccccc3)C(O)(c3ccc(C)cc3)C(c3ccccc3)=C2c2ccc(C)cc2)cc1`, the pEC50 is under 5.29 and the pIC50 was under 5.29. Turning to `CN(C)c1nc2n(CCO)c(-c3ccccc3)c(-c3ccccc3)nc-2c(=O)n1`, the pEC50 is 4.51 and the pIC50 is under 4.00.

On to `COP(=O)(OC)/C(C#N)=C/c1ccoc1`, for which the pEC50 is under 2.96 and the pIC50 is under 2.96. Regarding `Nc1ccc(SCc2ccc(C(=O)O)cc2[N+](=O)[O-])cc1`, the pEC50 is under 3.09 and the pIC50 is 3.47. The like results for `CCCCCCCCCCCC(=O)OC(COC(N)=O)COc1ccc(Cl)cc1` (stereo not given) were, in that order, under 4.91 and under 4.91. `Nc1c(N=Nc2ccc([N+](=O)[O-])cc2)c(S(=O)(=O)O)cc2cc(S(=O)(=O)O)c(N=Nc3ccccc3)c(O)c12`: the pEC50 was under 3.82 and the pIC50 is under 3.82.

As for `Cc1ccc([N+](=O)[O-])cc1NC(=O)/C(=N/NC(=S)NN)C1SC(=S)NC1=O` (stereo not given), the pEC50 was under 3.52 and the pIC50 is under 3.52. With `COc1cc(OC)c(OC)cc1/C=C1\C=Cc2ccccc21`, the pEC50 was under 4.75 and the pIC50 is under 4.75. On to `CNC(=O)CNC(=O)C(NC(=O)CNC(=O)C1CCCN1C(=O)C(C)NC(=O)C(NC(=O)OC(C)(C)C)C(C)C)C(C)C` (stereo not given) (Boc-VAPGVG-NHMe; configuration not given here), for which the pEC50 is under 3.70 and the pIC50 is under 3.70. As for `C=CC(C)(O)CNc1ccccc1` (stereo not given), the pEC50 was under 3.69 and the pIC50 is under 3.69. Consider `CCOC(=O)/C(C#N)=C\C=C1/C=CNC2=NCCN21`, for which the pEC50 was 4.71 and the pIC50 was 4.61.

As to `CC(=O)OCc1nnn2c1CCC2`, the outcome was inactive. For the compound `CC(=O)O[C@H]1CC[C@]2(C)C3CC[C@]4(C)C([C@H](C)CCCC(C)C)CCC4[C@]3(/C=N/O)n3c(=O)n(-c4ccccc4)c(=O)n3[C@]2(/C=N\O)C1` (stereo not given in full), the pEC50 was under 3.70 and the pIC50 is 4.96. Take `COc1cc(O)c2c(c1)O[C@H](C)[C@H](C)C2=O`: the pEC50 is 4.00 and the negative logarithm of the IC50 (pIC50) was under 3.70. In the same order, the values of `CC(=O)Nc1cccc2cc(S(=O)(=O)O)ccc12` are under 3.70 and under 3.70. The like results for `CN1CCN(C(=S)N(C)C(=O)c2ccco2)CC1` were, in that order, under 3.03 and under 3.03.

In the case of `Nn1c(-c2ccccc2Cl)nc2ccccc2c1=O`, the result was inactive. Take `O=S1c2ccccc2N=C(c2ccc(Cl)cc2)CC1c1cccs1` (stereo not given): the pEC50 is under 5.13 and the pIC50 was under 5.13. As to `NC1C2C(CC(=O)O)OCC=C3CN4CCC1(C(=O)C(=O)O)C4CC32` (stereo not given), the pEC50 was under 4.54 and the pIC50 was under 4.54. For `O=P(O)(O)CN1CCNCCN(CP(=O)(O)O)CCNCC1`, the pEC50 was under 3.70 and the pIC50 was 5.00. The like results for `CC(C)c1cc(C(=O)[O-])c(O)c(C(C)C)c1.CC(C)c1cc(C(=O)[O-])c(O)c(C(C)C)c1.CC(C)c1cc(C(=O)[O-])c(O)c(C(C)C)c1.CC(C)c1cc(C(=O)[O-])c(O)c(C(C)C)c1.CC(C)c1cc(C(=O)[O-])c(O)c(C(C)C)c1.CC(C)c1cc(C(=O)[O-])c(O)c(C(C)C)c1.[Cu+2].[Mn+2].[Mn+2]` were, in that order, under 4.67 and 4.97. For the compound `COc1ccc2c(c1)c[n+](C)c1c3cc(OC)c(OC)cc3ccc21`, the pEC50 is under 3.82; the pIC50 is 5.88 and 5.84 and 5.87. `CC(=O)Oc1ccc2c(c1)Cc1cc(N=[N+]([O-])c3ccc4c(c3)Cc3cc(OC(C)=O)ccc3-4)ccc1-2`: the pEC50 is under 3.70 and the pIC50 was under 3.70. As to `Cc1cc(NS(=O)(=O)c2ccc(NC(=O)c3ccc4nc5ccccc5c(Nc5ccc(S(=O)(=O)Nc6cc(C)on6)cc5)c4c3)cc2)no1`, the pEC50 was 4.17 and the pIC50 is under 4.00. Take `O=[N+]([O-])/C(C=Nc1ccccc1)=C/Nc1ccccc1`: the pEC50 was under 3.70 and the pIC50 is 3.98. In the same order, the values of `C=CCC(C(=O)OCC)C1NCCc2c1[nH]c1ccccc21` (stereo not given) are under 4.34 and under 4.34.

`CC(=O)Oc1c(C)c2c(c3ccccc13)OC(C)(C)C2`: the pEC50 is under 3.70 and the pIC50 is 4.62. The like results for `COc1cc2c(cc1O)C1CC(CC3CCCCN31)OC(=O)/C=C\c1ccc(O)c-2c1` (stereo not given) were, in that order, under 3.70 and 4.34. Regarding `COC1CCC(=O)N1CCn1c(SCc2ccccc2)nc2ccccc21` (stereo not given), the pEC50 is under 4.03 and the pIC50 was under 4.03. On to `COc1ccc(C=O)cc1Oc1ccc(C[C@H]2c3c(cc(OC)c4c3Oc3cc5c(cc3O4)CCN(C)C5=O)CCN2C)cc1`, for which the pEC50 was under 3.70 and the pIC50 was 5.01. Turning to `CCOC(=O)/C(C(=S)Nc1ccccc1)=C(/N)N1CCCC1`, the pEC50 was under 3.70 and the pIC50 was 4.27.

Take `CC(=O)OC1c2ccccc2C2c3ccccc3C1C2(C)C(Cl)(Cl)Cl` (stereo not given): the pEC50 is under 4.88 and the pIC50 was under 4.88. Turning to `CN(C)c1ccc(/C=C(\NC(=O)c2ccccc2)c2nc3ccc4c(c3[nH]2)C(=O)c2ccccc2C4=O)cc1`, the outcome was inactive.

Consider `CC(C)C(=S)N(C)O`, for which the pEC50 was under 4.73 and the pIC50 was 6.52. For the compound `C1COC(NC(C2CC2)C2CC2)=N1`, the result was inactive.

For the compound `CC(C)(C)c1cc2ccc(C(N)=O)cc2c(=O)[nH]1`, the pEC50 was under 3.27 and the pIC50 is 3.52.

Source of the values: PubChem BioAssay AID179 (DTP/NCI, 2004).
